Measured values reported in patent publication US20060286032A1, “A radiosotope-chitosan complex for treatment of prostate cancer” (priority 2003, published 2006).
Marks after values point to notes of the source that are not given here.

What was measured:
[1] = Autoradiography, complex solution versus ^166Ho(NO3)3.5H2O solution not containing chitosan, injected into the prostate gland; type: in vivo, rats; settings: for Radioactive concentration, Administration site / Radioactive concentration, End region of femur / Radioactive concentration, Liver / Radioactive concentration, Spine / Radioactive concentration, Spleen / Radioactive concentration, Kidney: 25 μl (about 100 μCi); for Radioactivity retained in the administration site, the prostate gland: 24 hrs after being administered
Experimental: To investigate advantages of the ^166Ho-chitosan complex, autoradiography was carried out for a group administered with the complex solution and a control group administered with a ^166Ho(NO3)3.5H2O solution not containing chitosan. In the complex solution administration group, 25 μl of the complex solution was administered, which was equal to about 100 μCi. The control group was administered with a ^166Ho(NO3)3.5H2O solution not containing chitosan with the same dosage and radioactive concentration as in the complex solution administration group. This test was carried out according to the same method as in Experimental Example 1, and each test drug was administered to the prostate gland. After 0.5, 2, 6 and 24 hrs, rats were sacrificed and evaluated by autoradiography. The measured radioactive concentrations (% ID/g) in various organs after injection of the complex solution and the ^166Ho(NO3)3.5H2O solution are given in Table 2, below.

[2] = test system: AIT carcinoma (androgen-independent carcinoma cell line); assay: Antitumor effect in AIT subcutaneous tumor model; type: in vivo, noble rats; settings: non-radioactive complex group; for Tumor growth inhibition rate: four weeks, tumor weight vs control
Experimental: To evaluate the effect of the complex on hormone-independent prostate cancer, an AIT carcinoma (androgen-independent carcinoma cell line) was transplanted into noble rats, and the antitumor effect of the complex was examined.
An androgen-independent, prostate carcinoma cell line, AIT, which is derived from noble rats, was cultured in 10% FBS-containing DMEM at 37° under 5% CO2. The cultured carcinoma cells were suspended in sterile physiological saline at a density of 4×10^6 cells/ml, and 2×10^6 cells were subcutaneously transplanted into the lateral abdomen of male 5-week noble rats. When the long axis of the tumor was about 1 cm long (in this test, 14 days after transplantation), the rats were grouped according to the tumor mass. The kit prepared in Example 2 was used as a test drug, and was administered at the same dose as in Experimental Example 5, that is, 0.2 ml. The rats were divided into four groups: a control group (no treatment); two administration groups administered with the complex solution at 10 mCi and 20 mCi per 1 cm^3 tumor; and another administration group administered with a non-radioactive complex solution (Holmium-165 (^165Ho)-chitosan complex solution). Four weeks after administration with the complex solution, tumors were excised from the rats, and tumor growth inhibition rates were measured by weighing the tumors.

[3] = test system: AIT prostate carcinoma cells; assay: Antitumor effect in orthotopic tumor model, AIT transplanted into the prostate gland; type: in vivo, noble rats; settings: non-radioactive complex group
Experimental: In addition to the subcutaneous tumor model tested in Experimental Example 6, the antitumor effect and side effects of the complex solution was examined in an orthotopic tumor model where AIT prostate carcinoma cells had been directly transplanted into the prostate gland. AIT cells were cultured in 10% FBS-containing DMEM at 37° under 5% CO2. The cultured carcinoma cells were suspended in sterile physiological saline at a density of 2×10^6 cells/0.05 ml. After noble rats were anesthetized with fentanyl and the abdomen was opened, 2×10^6 cells per rat were transplanted into the prostate gland of the rats. Seven days after carcinoma transplantation, the rats were randomly allocated. The kit prepared in Example 2 was used as a test drug, and 0.05 ml of the kit was administered. The rats were divided into four groups: a control group (no treatment); two administration groups administered with 0.5 mCi and 1.0 mCi of the complex solution; and another administration group administered with a non-radioactive complex solution (Holmium-165 (^165Ho)-chitosan complex solution). Two and four weeks after administration of the complex solution, the rats were sacrificed, and tumors were excised from the rats and weighed.

[4] = Histopathological examination of organs of rats of the orthotopic model (hematoxylin and eosin); type: in vivo, noble rats; settings: last day of the test
Excerpt: From all rats tested in Experimental Example 7, which were sacrificed on the last day of the test, the heart, lung, liver, kidney, spleen, testes, epididymis, seminal vesicle, bladder, rectum and tumor tissues were excised, embedded in paraffin according to general tissue processing, and sectioned into a thickness of 3 μm. The tissue sections were subjected to double staining with hematoxylin and eosin and histopathologically examined.

[5] = test system: DU-145 carcinoma cell line (hormone-independent prostate carcinoma cell line); assay: Antitumor effect in DU-145 subcutaneous tumor model, intratumoral injection; type: in vivo, nude mice; settings: for Tumor volume after injection / Tumor growth inhibition rate: non-radioactive complex group; for Tumor volume after injection: 0.2 ml intratumoral; for Tumor growth inhibition rate: last day of the test (2 wks), tumor volume vs control
Experimental: To investigate the effect of the complex on hormone-independent prostate cancer, a DU-145 carcinoma cell line (hormone-independent prostate carcinoma cell line), which is rarely produces prostate-specific antigen, was transplanted into nude mice and the antitumor effect of the complex was evaluated.
The DU-145 cells were cultured in 10% FBS (fetal bovine serum)-containing F-12K(Kaign's Modification of Ham's F-12 medium) in a 5% CO2 incubator at 37° C., and 2×10^5 cells/0.2 ml/head were subcutaneously transplanted into the lumbar portion of male 6-week nude mice. When the long axis of the tumor was about 1 cm long, the complex solution was intratumorally injected. The administration volume of the test drug was 0.2 ml. The mice were divided into four groups: a control group (no treatment); two administration groups administered with the complex solution at doses of 10 mCi and 20 mCi per 1 cm^3 tumor; and another administration group administered with a non-radioactive complex solution [Holmium-165 (^165Ho)-chitosan complex solution]. Two weeks after administration with the complex solution, the mice were histopathologically examined to evaluate the antitumor effect and toxicity to major organs of the complex.

[6] = listed as non-radioactive complex solution

O.O.O.O.O.O=[N+]([O-])[O-].O=[N+]([O-])[O-].O=[N+]([O-])[O-].[166Ho+3] [^166Ho, ^166Ho(NO3)3.5H2O]
Radioactive concentration, Administration site ([1]; 30 min): 4532 ± 513.4 % ID/g | Radioactive concentration, End region of femur ([1]; 30 min): 0.02^b % ID/g | Radioactive concentration, Liver ([1]; 30 min): 0.02 ± 0.011 % ID/g | Radioactive concentration, Spine ([1]; 30 min): 0.01^b % ID/g | Radioactive concentration, Administration site ([1]; 2 hrs): 4404 ± 1806.8 % ID/g | Radioactive concentration, End region of femur ([1]; 2 hrs): 0.11 ± 0.104 % ID/g | Radioactive concentration, Liver ([1]; 2 hrs): 0.04 ± 0.024 % ID/g | Radioactive concentration, Spine ([1]; 2 hrs): 0.03 ± 0.030 % ID/g | Radioactive concentration, Spleen ([1]; 2 hrs): 0.03 ± 0.009 % ID/g | Radioactive concentration, Administration site ([1]; 6 hrs): 2197 ± 1334.3 % ID/g | Radioactive concentration, End region of femur ([1]; 6 hrs): 0.32 ± 0.068 % ID/g | Radioactive concentration, Kidney ([1]; 6 hrs): 0.03 ± 0.008 % ID/g | Radioactive concentration, Liver ([1]; 6 hrs): 0.12 ± 0.022 % ID/g | Radioactive concentration, Spine ([1]; 6 hrs): 0.07 ± 0.010 % ID/g | Radioactive concentration, Spleen ([1]; 6 hrs): 0.07 ± 0.006 % ID/g | Radioactive concentration, Administration site ([1]; 24 hrs): 1067 ± 941.8 % ID/g | Radioactive concentration, End region of femur ([1]; 24 hrs): 1.74 ± 0.424 % ID/g | Radioactive concentration, Kidney ([1]; 24 hrs): 0.07 ± 0.025 % ID/g | Radioactive concentration, Liver ([1]; 24 hrs): 0.18 ± 0.150 % ID/g | Radioactive concentration, Spine ([1]; 24 hrs): 0.45 ± 0.123 % ID/g | Radioactive concentration, Spleen ([1]; 24 hrs): 0.11 ± 0.073 % ID/g | Radioactivity retained in the administration site, the prostate gland ([1]; listed as 166Ho(NO3)3.5H2O solution): about 30% | Radioactivity retained in the administration site, the prostate gland ([1]; listed as radioisotope solution not containing chitosan): 30% | Radioactive concentration in liver, spleen, kidney and end region of the femur, fold higher than in the complex solution group ([1]; after 6 and 24 hrs): 2 to 4 fold | Radioactive concentration in the administration site, fold lower than in the complex solution group ([1]; after 6 hrs): 2 fold | Radioactive concentration in the administration site, fold lower than in the complex solution group ([1]; after 24 hrs): 3 fold

Holmium-165 (^165Ho)-chitosan complex [Non-radioactive complex, reference compound]
Tumor weight ([2]; four weeks after administration): 18.1 ± 4.37 g | Tumor growth inhibition rate [2]: 20.4% | Tumor growth inhibition rate [2, 6]: about 20% | Tumor weight ([3]; 2 wks after administration): 1.93 ± 0.29 g | Tumor weight ([3]; 4 wks after administration): 32.62 ± 2.32 g | Histopathological changes in organs other than the tumor tissue (heart, lung, liver, kidney, spleen, testes, epididymis, seminal vesicle, bladder, rectum) [4]: no abnormalities in adjacent organs were found | Change in tumor volume ([5]; last day of the test): greatly increased | Tumor volume after injection ([5]; 1 wk): 1.24 ± 0.61 cm^3 | Tumor volume after injection ([5]; 2 wks): 5.03 ± 1.51 cm^3 | Tumor growth inhibition rate [5]: 23.1% | Tumor growth inhibition rate [5, 6]: about 20%
